pIC50: −log10 of the molar value. Read-outs that look alike come from different tables or passages of the source.
Assays:
Type in all cases: biochemical
[1] = target: T1, Kir6.2*-GFP + SUR-K205E (Homo sapiens, UniProt Q14654); experiment: Bayesian MWC-type model fits to combined patch-clamp fluorometry data; conditions: for Kd: read-out: KA (intrinsic binding affinity to the closed state) (converted)
T1 construct: ANAP labelling is specific and only full-length Kir6.2 is expressed at the cell membrane; expressed in transfected cells; host or cells: HEK-293T
T1 sequence (Q14654 whole entry, stated change not applied): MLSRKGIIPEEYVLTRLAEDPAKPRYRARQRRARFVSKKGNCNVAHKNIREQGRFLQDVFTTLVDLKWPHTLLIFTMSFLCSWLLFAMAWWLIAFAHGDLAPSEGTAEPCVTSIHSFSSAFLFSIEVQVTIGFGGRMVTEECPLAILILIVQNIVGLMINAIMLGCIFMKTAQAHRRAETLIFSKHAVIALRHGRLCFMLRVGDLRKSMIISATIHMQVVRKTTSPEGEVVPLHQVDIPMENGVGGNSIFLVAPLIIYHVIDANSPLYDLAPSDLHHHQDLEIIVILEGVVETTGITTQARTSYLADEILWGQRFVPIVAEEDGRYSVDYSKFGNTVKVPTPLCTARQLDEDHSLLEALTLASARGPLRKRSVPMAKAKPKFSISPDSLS
T1 sequence (Q09428 whole entry K205E partner): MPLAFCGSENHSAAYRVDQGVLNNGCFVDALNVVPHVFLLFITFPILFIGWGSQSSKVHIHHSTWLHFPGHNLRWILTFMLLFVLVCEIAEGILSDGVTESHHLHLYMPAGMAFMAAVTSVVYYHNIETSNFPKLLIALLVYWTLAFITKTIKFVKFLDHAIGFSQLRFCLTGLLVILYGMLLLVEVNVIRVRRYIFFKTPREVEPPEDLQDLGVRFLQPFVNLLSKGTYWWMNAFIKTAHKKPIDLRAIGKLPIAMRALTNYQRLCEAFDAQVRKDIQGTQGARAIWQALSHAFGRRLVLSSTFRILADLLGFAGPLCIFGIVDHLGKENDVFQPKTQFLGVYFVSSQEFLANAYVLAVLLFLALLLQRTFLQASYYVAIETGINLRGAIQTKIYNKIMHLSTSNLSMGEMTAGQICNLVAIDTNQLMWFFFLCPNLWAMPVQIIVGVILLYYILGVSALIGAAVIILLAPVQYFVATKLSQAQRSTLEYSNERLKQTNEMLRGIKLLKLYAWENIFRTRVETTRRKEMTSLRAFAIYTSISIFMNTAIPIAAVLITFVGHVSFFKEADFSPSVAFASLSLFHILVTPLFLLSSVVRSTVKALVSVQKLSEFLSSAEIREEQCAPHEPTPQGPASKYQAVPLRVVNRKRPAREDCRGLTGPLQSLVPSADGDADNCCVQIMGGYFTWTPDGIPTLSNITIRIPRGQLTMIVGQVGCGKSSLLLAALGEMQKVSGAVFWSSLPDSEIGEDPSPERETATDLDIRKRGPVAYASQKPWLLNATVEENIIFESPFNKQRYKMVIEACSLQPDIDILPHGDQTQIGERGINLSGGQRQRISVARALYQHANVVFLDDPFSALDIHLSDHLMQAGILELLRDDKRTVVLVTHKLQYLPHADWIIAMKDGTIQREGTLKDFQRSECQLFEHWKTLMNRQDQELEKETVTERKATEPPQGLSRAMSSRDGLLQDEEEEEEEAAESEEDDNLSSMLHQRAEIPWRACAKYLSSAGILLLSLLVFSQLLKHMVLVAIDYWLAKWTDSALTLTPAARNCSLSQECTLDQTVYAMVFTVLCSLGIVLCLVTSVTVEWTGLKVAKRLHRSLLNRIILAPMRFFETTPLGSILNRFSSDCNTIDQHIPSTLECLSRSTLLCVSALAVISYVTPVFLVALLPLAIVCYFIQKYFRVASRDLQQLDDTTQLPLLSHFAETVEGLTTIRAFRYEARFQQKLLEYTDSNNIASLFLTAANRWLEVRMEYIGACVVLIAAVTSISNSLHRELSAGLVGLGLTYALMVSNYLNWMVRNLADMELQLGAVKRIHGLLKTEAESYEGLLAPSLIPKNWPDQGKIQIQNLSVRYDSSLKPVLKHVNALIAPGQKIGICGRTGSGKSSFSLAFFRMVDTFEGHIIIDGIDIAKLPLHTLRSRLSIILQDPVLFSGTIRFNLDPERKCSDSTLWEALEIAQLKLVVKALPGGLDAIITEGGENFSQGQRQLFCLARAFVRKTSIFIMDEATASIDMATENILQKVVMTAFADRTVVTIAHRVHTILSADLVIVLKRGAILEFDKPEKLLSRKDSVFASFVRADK
Excerpt: (§1) Our simultaneous binding and current measurements were well fit with a Monod-Wyman-Changeux (MWC)-type model (Figure 2D,E; [Monod et al., 1965]) which has been previously proposed to explain KATP channel inhibition ([Enkvetchakul and Nichols, 2003]; [Craig et al., 2008]; [Vedovato et al., 2015]). In our MWC-type model, each ligand binding event ( KA ) is independent and each bound ligand favours the closed state by the same factor ( D ). Simultaneous measurement of binding (fluorescence) and gating (current) allowed us to obtain well constrained fits to our model. To obtain free parameter ( L , KA , D ) estimates and verify that each parameter was well and uniquely determined, we employed a Bayesian Markov chain Monte Carlo (MCMC) method previously employed by [Hines et al. (2014)]. Using this approach, we constructed posterior probability distributions for the free parameters of our MWC-type model (Figure 2F, Table 3). […] Our estimate of L was quite low and broadly distributed. We repeated our fits with L fixed to a value consistent with previous single channel measurements (0.8, Popen=0.45; [John et al., 1998]; [Enkvetchakul et al., 2000]; [Ribalet et al., 2006]). This had only a very small effect on our estimates of D and KA (Figure 2—figure supplement 1). The broad distribution of L in our fit may represent current rundown which occurs during our patch-clamp recordings and is expected to affect the open-closed equilibrium.
(§2) In addition to the full MWC-type model we considered alternate models (Figure 2—figure supplement 2). These included a model in which only the first binding event influences the open-closed equilibrium of the channel (single-binding model; Figure 2—figure supplement 2B, Table 3), and an MWC-style model with an additional parameter C to allow for direct negative cooperativity between binding sites (negative cooperativity model; Figure 2—figure supplement 2C, Table 3). The single-binding model yielded very similar parameter estimates to our full MWC-type model (Figure 2—figure supplement 2D, Table 3). This is a consequence of D being so low that even in the MWC-type model most channels are closed when only a single nucleotide is bound. The cooperative model improved our fits, but not enough to justify the inclusion of an additional free parameter (see Discussion).
(§3) The MWC-type models considered (Figure 2 and Figure 2—figure supplement 2) were formulated as follows:(3) F/Fmax=KA[TNPATP](1+KA[TNPATP])^3+LDKA[TNPATP](1+DKA[TNPATP])^3/(1+KA[TNPATP])^4+L(1+DKA[TNPATP])^4 (4) open channels/total channels=L(1+DKA[TNPATP])^4/(1+KA[TNPATP])^4+L(1+DKA[TNPATP])^4
(§4) The first was similar to the MWC-type model, except that the channels close after one molecule of TNP-ATP binding with subsequent binding events having no effect.(7) F/Fmax=LDKA[TNPATP](1+3KA[TNPATP]+3KA2[TNPATP]^2+KA3[TNPATP]^3)+KA[TNPATP](1+KA[TNPATP])^3/L(1+4DKA[TNPATP]+6DKA2[TNPATP]^2+4DKA3[TNPATP]^3+DKA4[TNPATP]^4)+(1+KA[TNPATP])^4 (8) I/Imax=L(1+4DKA[TNPATP]+6DKA2[TNPATP]^2+4DKA3[TNPATP]^3+DKA4[TNPATP]^4)/L(1+4DKA[TNPATP]+6DKA2[TNPATP]^2+4DKA3[TNPATP]^3+DKA4[TNPATP]^4)+(1+KA[TNPATP])^4⋅1+L/L
(§5) The second alternate model was the same as the full MWC model, but with an additional term C describing binding cooperativity between Kir6.2 subunits.(9) F/Fmax=LDKA[TNPATP](1+3CDKA[TNPATP]+3C^2D^2KA2[TNPATP]^2+C^3D^3KA3[TNPATP]^3)+KA[TNPATP](1+3CKA[TNPATP])+3C^2KA2[TNPATP]^2+C^3KA3[TNPATP]^3)/L(1+4DKA[TNPATP]+6CD^2KA2[TNPATP]^2+4C^2D^3KA3[TNPATP]^3+C^3D^4KA4[TNPATP]^4)+1+4KA[TNPATP]+6CKA2[TNPATP]^2+4C^2KA3[TNPATP]^3+C^3KA4[TNPATP]^4 (10) I/Imax=L(1+4DKA[TNPATP]+6CD^2KA2[TNPATP]^2+4C^2D^3KA3[TNPATP]^3+C^3D^4KA4[TNPATP]^4)/L(1+4DKA[TNPATP]+6CD^2KA2[TNPATP]^2+4C^2D^3KA3[TNPATP]^3+C^3D^4KA4[TNPATP]^4)+1+4KA[TNPATP]+6C^2KA2[TNPATP]^2+4C^2KA3[TNPATP]^3+C^3KA4[TNPATP]^4⋅1+L/L […]

[2] = target: T2, Kir6.2*-GFP + SUR-K205A (Homo sapiens, UniProt Q14654); experiment: as above; conditions: for Kd: read-out: KA (intrinsic binding affinity to the closed state) (converted)
T2 construct: ANAP labelling is specific and only full-length Kir6.2 is expressed at the cell membrane; expressed in transfected cells; host or cells: HEK-293T
T2 sequence (Q14654 whole entry, stated change not applied): as the sequence (Q14654 whole entry, stated change not applied) above
T2 sequence (Q09428 whole entry K205A partner): as the sequence (Q09428 whole entry K205E partner) above, with E205A counted along it
Excerpt: as §1, §2, §3, §4, §5

[3] = target: Kir6.2-GFP + SUR1 (Homo sapiens, UniProt Q14654); experiment: Current inhibition in excised inside-out patches (patch-clamp fluorometry); design: full length, fully ANAP-labelled Kir6.2 protein was produced and successfully trafficked to the membrane in the presence of SUR1; expressed in transfected cells; host or cells: HEK-293T; conditions: excised inside-out patches, Mg2+-free, Hill fit
Sequence of Kir6.2-GFP + SUR1 (Q14654 whole entry): as the sequence (Q14654 whole entry, stated change not applied) above
Sequence of Kir6.2-GFP + SUR1 (Q09428 whole entry partner): as the sequence (Q09428 whole entry K205E partner) above, with E205K counted along it
Procedure: Currents were measured from patches from cells expressing KATP that were excised in the absence of Mg^2+. Under such conditions, nucleotides can bind to both sites on SUR1, but no activation occurs, allowing inhibitory currents to be measured in isolation ([Gribble et al., 1998]; [Ueda et al., 1999]; [Puljung et al., 2019]).
Currents were measured as described above.

[4] = Full MWC model, median estimate
[5] = Single-site (single-binding) model

Q: Which results are given for `Nc1ncnc2c1ncn2[C@@H]1O[C@H](COP(=O)(O)OP(=O)(O)OP(=O)(O)O)[C@H]2OC3(O[C@H]21)C([N+](=O)[O-])=CC(=[N+]([O-])[O-])C=C3[N+](=O)[O-]` (stereo partly drawn) [TNP-ATP, trinitrophenyl-ATP]?
A: D (factor by which nucleotide binding favours channel closure) [1, 4]: 0.62; L (unliganded open-closed equilibrium constant) [1, 4]: −0.18 log10; Kd [1, 4]: 398 µM; C (binding cooperativity between Kir6.2 subunits) ([1]; Negative cooperativity model): 0.45; D (factor by which nucleotide binding favours channel closure) ([1]; Negative cooperativity model): 0.58; Kd ([1]; Negative cooperativity model): 195 µM; D (factor by which nucleotide binding favours channel closure) [1, 5]: 0.30; L (unliganded open-closed equilibrium constant) [1, 5]: −0.19 log10; Kd [1, 5]: 490 µM; D (factor by which nucleotide binding favours channel closure) [2, 4]: 0.55; L (unliganded open-closed equilibrium constant) [2, 4]: −0.37 log10; Kd [2, 4]: 174 µM; C (binding cooperativity between Kir6.2 subunits) ([2]; Negative cooperativity model): 0.35; D (factor by which nucleotide binding favours channel closure) ([2]; Negative cooperativity model): 0.52; L (unliganded open-closed equilibrium constant) ([2]; Negative cooperativity model): −0.16 log10; Kd ([2]; Negative cooperativity model): 79.4 µM; D (factor by which nucleotide binding favours channel closure) [2, 5]: 0.18; L (unliganded open-closed equilibrium constant) [2, 5]: −0.25 log10; Kd [2, 5]: 240 µM; pIC50 ([3]; IC50 current inhibition): 5.21; h (Hill coefficient) current inhibition [3]: 0.92
